Measured values reported in the NIST ThermoML archive (doi:10.1021/je900722m).

Assay: xn = mol fraction of the nth substance listed
Conditions: 101 kPa, Liquid

CC(C)CO [2-methyl-1-propanol] + CCCCO
Conditions	mass density, 323.15 K [kg/m3]	mass density, 328.15 K [kg/m3]	mass density, 333.15 K [kg/m3]	mass density, 338.15 K [kg/m3]	mass density, 343.15 K [kg/m3]	viscosity, 323.15 K [mPa·s]	viscosity, 328.15 K [mPa·s]	viscosity, 333.15 K [mPa·s]	viscosity, 338.15 K [mPa·s]	viscosity, 343.15 K [mPa·s]
x2 = 0.101	–	774.633	770.368	766.021	761.578	–	1.68	1.507	1.342	1.204
x2 = 0.2029	–	775.537	771.292	766.966	762.548	–	1.692	1.523	1.363	1.226
x2 = 0.3008	–	776.405	772.177	767.871	763.474	–	1.689	1.52	1.361	1.23
x2 = 0.4	–	777.281	773.068	768.778	764.4	–	1.684	1.511	1.357	1.228
x2 = 0.5	–	778.156	773.961	769.689	765.333	1.91	1.673	1.499	1.351	1.225
x2 = 0.5999	783.136	779.026	774.846	770.594	766.26	1.89	1.668	1.489	1.343	1.218
x2 = 0.6999	783.985	779.893	775.732	771.495	767.182	1.877	1.662	1.488	1.341	1.215
x2 = 0.7993	784.825	780.744	776.596	772.378	768.085	1.864	1.658	1.484	1.338	1.213
x2 = 0.8995	785.654	781.588	777.457	773.258	768.986	1.843	1.65	1.48	1.335	1.211
